Results from article PMC8597046, “Use of Mixture Dosing and Nonlinear Mixed Effect Modeling of Eight Environmental Contaminants in Rabbits to Improve Extrapolation Value of Toxicokinetic Data” (Environmental Health Perspectives, 2021).

How the values were obtained:
[1] = TK assay, oral mixture dosing: serum concentrations and noncompartmental analysis (sparse data)
Protocol: The experiment was carried out on thirty 10-wk old female New Zealand white rabbits (INRA 1777 line) weighing 2.37±0.14kg . […] Blood samples were taken at the designated time points post IV and oral administration: 15 min, 30 min, 1 h, 2 h, 4 h, 8 h, 12 h, 24 h, 3 d, 7 d, and 28 d from groups of 3 or 6 rabbits at each sampling time. Each rabbit was sampled 3 times and 3 rabbits were sampled at each sampling time, except at 30 min post administration, when 6 samples were collected to provide a sufficient blood volume for assaying the compounds. The doses and assay time points were selected to allow the calculation of TK parameters (Table 1) based on preliminary TK data. Residual concentrations of the compounds, and their possible evolution over time, were determined by sampling six entirely untreated rabbits during the TK study on the day of drug administrations, then 14 d and 28 d later.
The volume administered was adjusted to the animal’s body weight (BW) recorded the day before.
Intravenous administrations were performed via an indwelling catheter (22G Terumo, 0.9×25mm ) just after its insertion into an ear vein. […] For oral administrations, the mixture of all compounds ( 4mL/kg ) was deposited directly in the mouth of rabbits using a catheter (22G BD Insyte 22G, 0.9×25mm ). Prior to the study, the rabbits had been trained to gradually swallow water and then corn oil.
Blood samples were collected from the auricular artery using a 20 G needle ( 0.9×25mm ) and a dry tube. The first two blood samples were 8–10mL in volume, whereas a large volume (about 20mL ) was obtained antemortem immediately after electrical stunning (95LX rabbit stunner; Burdis), followed by exsanguination.
Serum concentration-time profiles of the different compounds were first analyzed using a noncompartmental approach (NCA) involving a sparse data option. Sparse data methodology consists of calculating TK parameters based on the mean profile of all the subjects in the dataset and is appropriate when a rich data series cannot be obtained, as in the present experiment ([FDA 1999]). The area under the concentration time curve ( AUC0−tlast ) and the area under the first moment curve ( AUMC0−tlast ) from dosing time ( t=0 ) to the time of the last measurable concentration were calculated using the linear trapezoidal rule after IV and oral dosing. The area under the serum concentration time curve from dosing time to infinity ( AUC0−inf ) was obtained by adding to AUC0−tlast the area extrapolated from the time of the last measurable concentration to infinity by dividing the last quantifiable serum concentration by the slope of the terminal phase ( λZ ), as estimated by linear regression using the best fit option of Phoenix®.
The clearance (CL) and apparent clearance (CL_F) were respectively estimated after IV and oral administrations by dividing the administered dose by the AUC0−inf calculated for each analyte.
The terminal half-life (HL) was estimated with Equation 1: (1) HL=0.69315/λZ where λz is the slope of the terminal phase.
The oral bioavailability (F) was estimated using Equation 2: (2) F=AUCvo0−tlast×Doseiv/AUCiv0−tlast×Dosevo, where AUCiv0−tlast and AUCvo0-tlast are the values of AUC0−tlast obtained after IV and oral dosing, respectively, and Doseiv and Dosevo are the IV and oral doses.

[2] = Nonlinear mixed effect (NLME) compartmental modeling of merged IV and oral serum concentrations; conditions: for Volume(s) of the peripheral compartment: for PFOA first peripheral compartment
Source text: A nonlinear mixed effect (NLME) modeling approach was used to analyze simultaneously all data obtained from the different rabbits after both IV and oral administrations and to provide robust estimates of the typical TK parameters.
The primary parameters of the model, namely the volume of distribution of the central compartment (V1), the first-order rate constants ( K10 , K12 , K21 , and Kabs plus K13 , K31 for PFOA) and the bioavailability (F) and their associated precisions [standard error (SE)] were estimated by minimizing an objective function value (OFV) expressed as minus twice the log of the likelihood estimation ( −2LL ). […] Marginal likelihood was approximated by using the Laplacian engine by default and, when this engine was unable to determine the SE of the estimate, the Quasi-Random Parametric Expectation Maximization (QRPEM) was selected.
Between subject variability (BSV) of the parameters was measured using the exponential model θparameter_i=θtv_parameter×exp (ηi), where θparameter_i is the parameter estimated for the ith individual, θtv_parameter is the typical population value of the parameter, and ηi is the deviation associated with the ith individual from the corresponding value of the parameter at the population level.
The distribution of ηi was assumed to be normal with a mean of 0 and a variance ω² . BSV was reported as a coefficient of variation (CV) in the original scale CV(%)=100× exp (ω^2)−1 .
The residual variance was modeled using a combined additive and proportional error model Cobsij=Cpredij(1 + ε1ij) + ε2ij, where Cobsij and Cpredij are respectively the jth observed and predicted concentrations for the ith individual, and ε1ij and ε2ij are the multiplicative and additive residual errors.
Secondary parameters were calculated from the population primary parameters.
The clearance values (CL) were estimated using Equation 5: (5) CL=K10×V1, where V1 is the volume of the central compartment and K10 is the elimination rate constant from the central compartment.
The volume of the peripheral compartment (V2) was estimated with Equation 6: (6) V2=V1×(K12/K21), where K12 and K21 are the distribution rate constants between the central and the peripheral compartments.
The clearance of distribution (Q) was estimated using Equation 7: (7) Q=K12×V1, with […] and K12 as defined above.
The volume of distribution associated with the terminal phase was estimated with Equation 10: (10) VZ=CL/λZ, with λZ as defined above.
The AUC was computed as a secondary parameter using Equation 11: (11) AUC=Dose/CL.
The terminal half-life was estimated with Equation 1, as previously described.

[3] = oral mixture dosing, NCA, n=12, MEHP after oral DEHP
[4] = population primary parameter, typical value, mean
[5] = population primary parameter, typical value, mean, MEHP after oral DEHP
[6] = population secondary parameter, mean
[7] = female, New Zealand white (INRA 1777 line), rabbit, in vivo, po
[8] = female, New Zealand white (INRA 1777 line), rabbit, in vivo, po, Serum concentration
[9] = female, New Zealand white, rabbit, in vivo, po, Serum concentration
[10] = female, New Zealand white (INRA 1777 line), rabbit, in vivo
[11] = female, New Zealand white, rabbit, in vivo
[12] = female, New Zealand white, rabbit, in vivo, po

O=S(=O)(O)C(F)(F)C(F)(F)C(F)(F)C(F)(F)C(F)(F)C(F)(F)C(F)(F)C(F)(F)F [nPFOS, linear isomer of perfluorooctane sulfonate]
Oral bioavailability estimated by NCA ([1]; NCA): greater than 100% | CL_F (apparent clearance) ([1]; oral mixture dosing, NCA, n=12): 0.00347 mL/min/kg | MRT [1, 3]: 69.92 days | Tmax [1, 3]: 1 days | VZ_F (apparent volume of distribution associated to the terminal phase) [1, 3]: 0.359 L/kg | Serum concentration ([1]; oral, rabbit 13, 4.30 h, MEHP after oral DEHP): 710 nM | Serum concentration ([1]; oral, rabbit 14, 0.37 h, MEHP after oral DEHP): 230 nM | Serum concentration ([1]; oral, rabbit 14, 4.17 h, MEHP after oral DEHP): 890 nM | Serum concentration ([1]; oral, rabbit 15, 4.05 h, MEHP after oral DEHP): 1040 nM | Serum concentration ([1]; oral, rabbit 15, 23.98 h, MEHP after oral DEHP): 1280 nM | Serum concentration ([1]; oral, rabbit 16, 0.55 h, MEHP after oral DEHP): 140 nM | Serum concentration ([1]; oral, rabbit 16, 72.00 h, MEHP after oral DEHP): 1100 nM | Serum concentration ([1]; oral, rabbit 17, 0.53 h, MEHP after oral DEHP): 120 nM | Serum concentration ([1]; oral, rabbit 17, 72.00 h, MEHP after oral DEHP): 1540 nM | Serum concentration ([1]; oral, rabbit 18, 0.55 h, MEHP after oral DEHP): 290 nM | Serum concentration ([1]; oral, rabbit 18, 71.96 h, MEHP after oral DEHP): 1250 nM | Serum concentration ([1]; oral, rabbit 19, 12.00 h, MEHP after oral DEHP): 660 nM | Serum concentration ([1]; oral, rabbit 19, 168.02 h): 1010 nM | Serum concentration ([1]; oral, rabbit 20, 12.00 h, MEHP after oral DEHP): 690 nM | Serum concentration ([1]; oral, rabbit 20, 168.00 h): 1070 nM | Serum concentration ([1]; oral, rabbit 21, 12.00 h, MEHP after oral DEHP): 810 nM | Serum concentration ([1]; oral, rabbit 21, 168.00 h): 1060 nM | Serum concentration ([1]; oral, rabbit 22, 672.02 h): 450 nM | Serum concentration ([1]; oral, rabbit 23, 671.96 h): 820 nM | Serum concentration ([1]; oral, rabbit 24, 672.02 h): 1020 nM | AUC0−inf ([1]; serum, oral mixture dosing, NCA, n=12, MEHP after oral DEHP): 1,919 μmol×h/L | Cmax ([1]; serum, oral mixture dosing, NCA, n=12, doses in Table 3 r3, MEHP measured after oral DEHP, BPSG after BPS): 1300 nM | MRT ([2]; NLME model): 47.6 days | Oral bioavailability (F) ([2]; NLME model): total | Terminal HL ([2]; NLME model): 33 days | AUCIV ([2]; dosing time to infinity after intravenous dosing, population secondary parameter): 355 µM·h | AUCVO ([2]; dosing time to infinity after oral dosing, population secondary parameter, MEHP after oral DEHP): 1,246 μmol×h/L | AUCVO/dose ([2]; oral dosing): 3,115 μmol×h/L per μmol/kg BW | bioavailability ([2]; oral, population secondary parameter, mean, as fraction): 1 | tvK10 (elimination rate constant from the central compartment) [2, 4]: 0.00111 h⁻¹ | tvK12 (distribution rate constant) [2, 4]: 0.153 h⁻¹ | tvK21 (distribution rate constant) [2, 4]: 0.581 h⁻¹ | tvVc (volume of the central compartment) [2, 4]: 0.290 L/kg | tvKabs (rate constant of absorption) [2, 5]: 0.252 h⁻¹ | Clearance [2, 6]: 0.00533 mL/min/kg | VSS [2, 6]: 0.37 L/kg | Volume(s) of the peripheral compartment [2, 6]: 0.077 L/kg | half-life ([2]; terminal, population secondary parameter, mean): 33 days

ClC(Cl)=C(c1ccc(Cl)cc1)c1ccc(Cl)cc1 [pp′DDE, 1,1-Dichloro-2,2-bis(p-chlorophenyl)ethylene]
AUC(0-inf) [1, 7]: 78.6 µM·h | CL/F [1, 7]: 3 mL/min/kg | Cmax [1, 7]: 580 nM | MRT [1, 7]: 12.8 days | Tmax [1, 7]: 1 days | Vd/F [1, 7]: 68.8 L/kg | bioavailability [1, 7]: 62% | half-life [1, 7]: 10.8 days | Serum concentration ([1]; female, New Zealand white (INRA 1777 line), rabbit, in vivo, po, 24 h): 430 nM | Serum concentration ([1]; female, New Zealand white (INRA 1777 line), rabbit, in vivo, po, 672.02 h): 40 nM | concentration at 0.57 h [1, 8]: 16 nM | concentration at 23.98 h [1, 8]: 250 nM | concentration at 24 h [1, 8]: 720 nM | concentration at 168 h [1, 8]: 110 nM | concentration at 671.96 h [1, 8]: 24 nM | concentration at 672.02 h [1, 8]: 31 nM | Serum concentration ([1]; female, New Zealand white, rabbit, in vivo, po, 72 h): 200 nM | concentration at 71.96 h [1, 9]: 250 nM | concentration at 72 h [1, 9]: 140 nM | concentration at 168 h [1, 9]: 110 nM | concentration at 168.02 h [1, 9]: 91 nM | Vd [2, 10]: 35 L/kg | k el [2, 10]: 1.33e-05 s⁻¹ | bioavailability ([2]; female, New Zealand white (INRA 1777 line), rabbit, in vivo, po, Oral bioavailability (F)): 72% | MRT [2, 11]: 10.9 days | half-life [2, 11]: 11.3 days | clearance ([2]; female, New Zealand white, rabbit, in vivo, Clearance): 2.17 mL/min/kg | AUC ([2]; female, New Zealand white, rabbit, in vivo, iv): 17 µM·h | AUC [2, 12]: 77 µM·h | AUCVO/dose [2, 12]: 5.35 μmol×h/L per μmol/kg BW | bioavailability ([2]; female, New Zealand white, rabbit, in vivo, po, Bioavailability): 72% | tvK12 (distribution rate constant) [2, 4]: 0.08353 h⁻¹ | tvK21 (distribution rate constant) [2, 4]: 0.00729 h⁻¹ | tvVc (volume of the central compartment) [2, 4]: 2.821 L/kg | tvKabs (rate constant of absorption) [2, 5]: 0.01994 h⁻¹ | Volume(s) of the peripheral compartment [2, 6]: 32 L/kg
